Test results taken from publication PMC10403511, “DNA-encoded chemical libraries yield non-covalent and non-peptidic SARS-CoV-2 main protease inhibitors” (Communications Chemistry, 2023).
Read-outs that look alike come from different tables or passages of the source.

Key:
[1] = format: in vitro ADME, mouse; conditions: 10 μM
Protocol: (§1) At time points of 0, 30, 60, and 120 min, 15 μL of the samples were taken out, and the reactions were terminated by adding 75 μL of ice-cold methanol. The reaction mixtures were then vortexed for 30 s and centrifuged at 15,000 rcf for 15 min. […] The percentage of test compound remaining at the individual time points was normalized by the 0-min.
(§2) 10 µM in duplicate (n=2) at 37 °C. The reactions were terminated at time points of 0, 30, 60 and 120 min by adding ice-cold methanol. Following centrifugation, the supernatant was analyzed using UHPLC-Q E xa ct ive Orbitrap MS. The percentage of test compound remaining at the individual time points relative to the 0 min sample was determined S12

thrombin = target: T1, thrombin (Homo sapiens, UniProt P00734); assay: Human protease off-target assay, commercial kit; format: biochemical; conditions: 10 µM compound
T1 construct: purchased Sigma-Aldrich MAK243
Protocol: (§3) These assays were done exactly as we described earlier. In brief, commercial kits were used for all four human proteases as follows: Cathepsin B (BPS Bioscience, #79590), Renin (BPS Bioscience, #80211), Thrombin (Sigma-Aldrich, #MAK243), and MMP-1 (Biovision, #K794-100). All assays were run in kinetic mode and at RT, except MMP-1, which was run at 37 °C. Positive controls were used for all assays, i.e., E64 for Cathepsin B, Aliskiren for Renin, CDD-1472 for Thrombin, and GM 6001 for MMP-1. Activities were obtained from linear initial progress curves, and fractional activities were calculated from reactions with no inhibitors[17],[19],[34].
(§4) Supplementary Figure 4. Potential off-target inhibition of major proteases, i.e. thrombin (a serine protease), cathepsin B (a cysteine protease like Mpro), renin (an
(§5) control inhibitors as indicated. S9 […]

renin = target: T2, renin (Homo sapiens, UniProt P00797); assay: Human protease off-target assay, commercial kit; format: biochemical; conditions: 11.1 µM compound
T2 construct: purchased BPS Bioscience 80211
T2 sequence (P00797 67-406): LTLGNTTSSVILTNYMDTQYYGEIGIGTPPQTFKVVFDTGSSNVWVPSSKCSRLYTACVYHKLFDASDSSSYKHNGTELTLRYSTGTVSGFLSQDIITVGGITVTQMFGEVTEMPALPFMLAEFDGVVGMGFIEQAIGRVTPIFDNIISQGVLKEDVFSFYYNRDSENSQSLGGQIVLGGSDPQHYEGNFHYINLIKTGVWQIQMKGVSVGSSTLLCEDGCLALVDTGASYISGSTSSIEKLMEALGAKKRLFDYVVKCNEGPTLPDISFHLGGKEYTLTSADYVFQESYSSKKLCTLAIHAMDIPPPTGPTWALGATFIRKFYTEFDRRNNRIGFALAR
Protocol: as §3, §4, §5

[2] = target: T3, matrix metallopeptidase-1 (MMP-1) (Homo sapiens, UniProt P03956); assay: Human protease off-target assay, commercial kit; format: biochemical; conditions: 10 µM compound, 37 °C
T3 construct: purchased Biovision K794-100
T3 sequence (P03956 100-469): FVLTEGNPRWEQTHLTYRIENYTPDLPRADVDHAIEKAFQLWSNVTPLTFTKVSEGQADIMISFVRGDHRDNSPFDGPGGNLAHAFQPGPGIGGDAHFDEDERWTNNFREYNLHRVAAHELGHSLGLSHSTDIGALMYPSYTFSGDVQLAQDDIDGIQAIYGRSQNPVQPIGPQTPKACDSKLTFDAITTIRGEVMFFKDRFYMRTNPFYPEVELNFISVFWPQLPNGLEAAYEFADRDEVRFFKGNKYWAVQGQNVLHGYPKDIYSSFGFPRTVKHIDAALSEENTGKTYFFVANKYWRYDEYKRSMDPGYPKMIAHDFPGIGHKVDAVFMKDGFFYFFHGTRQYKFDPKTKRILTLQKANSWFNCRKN
Protocol: as §3, §4, §5

cathepsin B = target: T4, cathepsin B (Homo sapiens, UniProt P07858); assay: Human protease off-target assay, commercial kit; format: biochemical; conditions: 10 µM compound
T4 construct: purchased BPS Bioscience 79590
Protocol: as §3, §4, §5

in vivo = conditions: 50 mg/kg
Protocol: The whole blood samples were centrifuged at rcf 2000 for 5 min for the plasma separation of plasma. The plasma samples were stored at −80 °C before analysis. All the samples were analyzed with a Q Exactive orbitrap MS coupled with UHPLC (Thermo Fisher Scientific, San Jose, CA). LC-Q Exactive MS was operated in the same parameters used in the cell uptake assay above. The concentration of these compounds in plasma was quantified using individual calibration curves.
PK parameters such as half-time (T1/2), area under the plasma concentration–time curve during the period of observation (AUC0–t), area under the plasma concentration–time curve from zero to infinity (AUC0–∞), clearance normalized by the bioavailability (CL/F), and the mean residence time (MRT) were calculated by WinNonlin software (Certara, Princeton, NJ) by noncompartmental analysis. The plasma concentration–time curves were plotted in Prism 7 (GraphPad, San Diego, CA) as mean ± S.D.
Mouse PK of CDD compounds, 50 mg/kg
samples we re collected at 0, 5, 10, 15, 30 m in , 1, 2, 4, 6 and 8 h af ter dosing. P la sm a samples we re separated, prepared and analyzed wit h LC-MS. The compound
± SD (n=4). Tmax, time to rea ch the m a ximum pla sma concentration. Cm ax, maximum p las m a concentration. T1/2, half-lif e . AUC, area under the cu rve . CL, clea ran ce . F,
bioavailability. M R T, mean residence time.

HepG2 cells [3] = assay: cells; conditions: Homo sapiens, HepG2, 24 h, read-out: IC50 (HepG2 cell viability)
HepG2 cells [4] = tested on: HepG2 cells
in vitro = conditions: human
[5] = format: in vitro ADME, human; conditions: 10 μM
Protocol: as §1, §2

M^pro variant A173V = conditions: previously shown; cited from earlier work
[6] = tested on: M^pro variant ΔP168/A173V; conditions: previously shown; cited from earlier work
HepG2 cells [7] = format: in vitro ADME; conditions: 10 μM, 2 h
Protocol: The plate was incubated at 37 °C for another 2 h, and the medium in the plate was then decanted. The cells were rinsed with 1 mL of 1× DPBS three times, trypsinized at 37 °C for 3.5 min, centrifuged, and the cell pellets from each well were reconstituted in 500 μL of MeOH/H2O (vol/vol 1/1). […] The mixtures were centrifuged at 15,000 rcf for 15 min. Three microliters of the supernatant were injected into UHPLC-Q Exactive Orbitrap MS (Thermo Fisher Scientific) equipped with a 50 × 4.6-mm column (XDB C-18; Agilent Technologies) for analysis. The column temperature was set at 40 °C. The mobile phase system was (A) water (containing 0.1% formic acid) and (B) acetonitrile (containing 0.1% formic acid), with a flow rate of 0.3 mL/min. The gradient elution program was set as follows: 0 to 0.25 min, 40% B; 0.25 to 1.5 min, 40 to 98% B; 1.5 to 3.5 min, 98% B; 3.5 to 3.8 min, 98 to 40% B; 3.8 to 5 min, 40% B. Ultrapure nitrogen was used as the sheath (45 arbitrary units), auxiliary (10 arbitrary units), and sweep (1.0 arbitrary unit) gas. The capillary and auxiliary gas temperatures were 275 °C and 380 °C, respectively. The spray voltage was 3.75 kV. […]
were expressed as the intracellular concentrations (peak areas) of these compounds. […]
and homogenized. The intracellular concentrations were measured with UHPLC-Q E xa ct ive Orbitrap MS. ND stands for “not detected”.

Compound	compound remaining in plasma ([1]; mouse, plasma, 2 h)	inhibition of enzymatic activity (thrombin)	inhibition of enzymatic activity (renin)	inhibition of enzymatic activity [2]	inhibition of enzymatic activity (cathepsin B)	MRT inf (in vivo; male, mouse, in vivo, po)	MRT last (in vivo; male, mouse, in vivo, po)	Tmax (in vivo; male, mouse, in vivo, po)	half-life (in vivo; male, mouse, plasma, oral)	CL/F (in vivo; mice, per oral gavage (po.), n=4, mean ± SD)	IC50 (HepG2 cells [3])	cytotoxicity (HepG2 cells [4])	viability at 24 h, 100 µM (in vitro)	compound remaining in plasma ([5]; human, plasma, 2 h)	increase in Ki relative to WT (M^pro variant A173V)	increase in Ki relative to WT [6]	compound remaining in plasma ([1]; mouse plasma, 37 °C, after 2 h incubation)	cytotoxicity (HepG2 cells [4]; HepG2 cells)	cell uptake (permeability) (HepG2 cells [7])	compound remaining in plasma ([5]; human plasma, 37 °C, after 2 h incubation)
CNC(=O)[C@H]1C[C@H](n2c(-c3cncc4ccccc34)nc3cccc(C(=O)N[C@@H](C)c4ccc5ccccc5c4)c32)C1 [CDD-1819]	80%	None of these inhibitors blocked the enzymatic activity	None of these inhibitors blocked the enzymatic activity	None of these inhibitors blocked the enzymatic activity	None of these inhibitors blocked the enzymatic activity	1.42 ± 0.16 h	1.31 ± 0.12 h	0.33 ± 0.14 h	1.2 ± 0.1 h	7.26 ± 1.81 mg/ ( hr*µmol/L)/kg	> 100 µM	no obvious cytotoxicity	> 80%	80%	–	–	–	–	–	–
CC(C)(C)[C@H](NC(=O)C(F)(F)F)C(=O)N1C[C@H]2[C@@H]([C@H]1C(=O)N[C@H](C#N)C[C@@H]1CCNC1=O)C2(C)C [Nirmatrelvir, nirmatrelvir]	–	–	–	–	–	–	–	–	–	–	–	–	–	–	50 fold	600 fold	–	–	–	–
CCC[C@H](NC(=O)c1cccc2nc(-c3cncc4ccccc34)n([C@H]3C[C@H](C(=O)NC)C3)c12)c1ccc(C(F)(F)F)cc1 [CDD-1733]	–	None of these inhibitors blocked the enzymatic activity	None of these inhibitors blocked the enzymatic activity	None of these inhibitors blocked the enzymatic activity	None of these inhibitors blocked the enzymatic activity	–	–	–	–	–	> 100 µM	–	–	–	–	–	80%	no obvious cytotoxicity	good permeability	80%
